Results taken from patent US7196163B2, “Assays using amyloid precursor proteins with modified β-secretase cleavage sites to monitor β-secretase activity” (Merk & Co., Inc., priority 2001, dated 2007).
Ends that are not written are not given here. coumarin = not defined here

How the values were obtained:
anti-EVEFR antibodies = test: ORIGEN non-sandwich competition of peptides with binding of ruthenylated anti-EVEFR antibodies to biotinylated EVEFR; design: species or system rabbit; details: peptide added over a broad concentration range; FIGS. 3A, 3B
Method: Antibody specificity also was evaluated for both lots. An ORIGEN Analyzer (described below) was utilized in a non-sandwich assay to compare the ability of related polypeptides to compete with the binding of ruthenylated anti-EVEFR antibodies to biotinylated EVEFR (SEQ. ID. NO. 58). Certain peptides and conjugated peptides were added as treatments over a broad concentration range, and competitive titrations were made. […] The normal antigen is not acetylated.
Additionally, the specificity of the antibody raised against the EVEFR (SEQ.ID.NO.:58) sequence is tight enough that a conservative change in the epitope presented to the antibody, namely DVEFR(SEQ ID. NO. 60) where the NH-terminus E is conservatively changed to D, the antibody would only recognize the bona fide cleavage product. When measuring products in a cell-based environment, where thousands and perhaps millions of different proteins and epitopes are presented to the antibody, such specificity is required for the absolute measurement of the specific BACE cleavage product. Overall, the polyclonal rabbit antibodies raised against EVEFR (SEQ.ID.NO.:58) are shown to be sufficiently specific for use in detection analyses.
In certain embodiments the antibodies of the present invention are used in an electrochemiluminescence (ECL) detection method known in the art as “Origen” technology (Yang et al., 1994, Bio/Technology 12:193–194; Khorkova et al., 1998. Journal of Neuroscience Methods 82:159–166), and an Origen 1.5 Analyzer (Igen Inc., Gaithersburg, Md.). In embodiments using this ECL-based ORIGEN technology, each purified antibody lot is derivatized to a ruthenium tris-bipyridyl compound. The following provides one example of one of such embodiments.

HEK293T cells = test: Aβ (IP/Western) and sAPP (Western) produced by APP β-site mutants transiently transfected into HEK293T cells; assay type: cell-based; details: for Aβ level / sAPP level: transfected into 293T cells; for sAPP level: Western blot with LN27; for Aβ production compared with Swedish mutant and wild type APP695: HEK293T cells
Source text: In order to assess the relative suitability of modified β-secretase substrates as substrates that are more reactive than the wild type KMDA cleavage site, plasmid DNA constructs were made expressing 21 different modified β-secretase cleavage site sequences. Table 1, below, summarizes data obtained from most of these modified β-secretase substrates in HEK293T cells. The HEK293T cells were transfected with plasmids containing the genetic sequences for the APP695 polypeptides that contain each of these beta-site substitutions. These plasmids were prepared using the method described above in Example 1. Transient transfection was performed using LipofectaminePlus reagent (Gibco/BRL, Rockville, Md.) according to the instructions of the manufacturer. Media was harvested 48 hrs post transfection. Then Western blot analysis was used to determine levels of sAPP and IP/Western to determine levels of Aβ. Several volumes of conditioned media, 20 μl, 10 μl, 5 μl, 2.5 μl, from the transiently transfected cells were run on 10% SDS-PAGE gels and transferred to PVDF for the measurement of sAPP. Each blot contained a titration of wild type APP transfected conditioned media to normalize for any experimental variations derived from transferring of the gels and western blot detection. The blots were then probed with the antibody LN27 (Zymed, Calif.) to detect the secreted APP, sAPP. Densitometry of each western blot determined the relative amount of total APP expressed in each transfection.
To determine the levels of Aβ, each of the conditioned media was immuno-precipitated and analyzed via the following method. 5 μg of monoclonal antibody G2-10 (a monoclonal antibody that immunologically binds to the carboxyl end of Aβ40, licensed from University of Heidelberg) was added to 1 ml of each conditioned media. The mixture was rotated overnight at 4° C. for 16 hours. 25 μl of a 50% slurry of Protein A sepharose Fast flow beads (Amersham, N.J.) was added and incubation continued, rotating, for 2 hours at 4° C. The beads were pelleted and the supernatant was removed. The beads were washed once with 1 ml PBS. This material was then run on SDS-Tricine gels for analysis. 20 μl of 2×tricine loading buffer was added to the pellet and the mixture was heated at 95° C. for 5 minutes. A pipette tip was used to mix and load the whole mixture (beads included) onto a Bio-Rad 10–20% Tricine gel. The gels were electrophoresed at 125 Volts for 2 hours and 15 minutes and then transferred onto 0.2 μm nitrocellulose backed by a 0.1 μm nitrocellulose membrane for 75 minutes at 100V constant. Blots were then washed in PBS and boiled in PBS for 5 minutes before blocking in PBS plus 0.05% Tween-20 (PBST) with 5% non-fat milk for 60 minutes at room temperature. The milk was washed off twice with PBST and the blots were incubated overnight at 4° C. with G2-10 in PBST (1:1000 dilution). Blots were washed five times for 5 minutes each with large volumes of PBST and the secondary antibody of Goat anti-mouse IgG2b-HRP (Southern Biotechnology Associates, Inc., Birmingham, Ala.) was added at 1:5000 in PBST-5% milk and incubated, rocking, for 1 hour at room temperature. The blots were again washed, five times for 10 minutes each in large volumes of PBST. The substrate Pico ECL (Pierce) was added for 5 minutes and the blots were exposed to Kodak BioMax film. After western analysis was complete, the bands were quantitated by densitometry. For both the sAPP and the Aβ, the GFP control plasmid transfection serves as the background reference level (1×).

[1] = system: immortalized β-secretase-/-mouse fibroblast cells; test: Aβ production after transfection into immortalized β-secretase-/- mouse fibroblast cells, with or without human β-secretase; assay type: cell-based; details: no β-secretase co-transfected
Source text: Production of Aβ in β-secretase-/-cells could be rescued by co-transfection of the APP-derived polypeptides comprising modified β-secretase cleavage site sequences with human β-secretase.

Cultured cells = details: cultured cells expressing cDNA encoding APP; cited from earlier work
2081 antibody = test: Competition of peptides against biotinylated-SEVNF for binding of the 2081 antibody; design: species or system rabbit
Method: To determine the specificity of the 2081 antibody, competition experiments against the biotinylated-SEVNF with the following peptides were performed: SEVNF, SEVN, SEVNFE, SEVNL, and SEVNLD. The experiment was performed similar to the experiment outlined in Example 2 to determine the specificity of antibody 2081.

BACE 1 = BACE 1 (Homo sapiens, UniProt P56817); test: Homogeneous end point HPLC assay of BACE 1 cleavage of coumarin substrate; assay type: biochemical
Method: A typical reaction contains 2 nM enzyme, 1.0 μM of the substrate, and buffer (50 mM NaOAc, pH 4.5, 0.1 mg/ml BSA, 0.2% CHAPS, 15 mM EDTA and 1 mM deferoxamine) in a total reaction volume of 100 μL. The reaction is proceeded for 30 min and the reaction is stopped by the addition of 25 μL of 1 M Tris-HCl, pH 8.0. The resulting reaction mixture was loaded on the HPLC and the product was separated from substrate with 5 min linear gradient. […] The enzyme used in these studies was soluble (transmembrane domain and cytoplasmic extension excluded) human protein produced in a baculovirus expression system. […] All experiments were conducted at room temperature using the standard reaction conditions described above. To determine the IC50 of the compound, four parameters equation is employed for curve fitting.

Sequence of BACE 1 (P56817 46-457 limits assumed): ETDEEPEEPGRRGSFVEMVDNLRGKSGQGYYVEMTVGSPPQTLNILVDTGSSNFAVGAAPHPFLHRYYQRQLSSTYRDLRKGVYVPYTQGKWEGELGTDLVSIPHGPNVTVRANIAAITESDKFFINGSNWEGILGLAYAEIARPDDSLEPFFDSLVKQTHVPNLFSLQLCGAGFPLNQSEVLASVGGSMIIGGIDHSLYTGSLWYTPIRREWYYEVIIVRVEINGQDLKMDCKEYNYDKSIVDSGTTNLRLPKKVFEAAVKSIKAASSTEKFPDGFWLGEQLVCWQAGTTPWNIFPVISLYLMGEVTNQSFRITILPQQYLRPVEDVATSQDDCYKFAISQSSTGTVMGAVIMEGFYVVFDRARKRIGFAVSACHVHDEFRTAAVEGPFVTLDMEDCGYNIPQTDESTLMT

Which “competition with biotinylated EVEFR for anti-EVEFR binding” value (shortened to “competition with biotinylated EVEFR”) (anti-EVEFR antibodies) does the source give for “DAEFR (peptide for use in antibody specificity evaluation)” here?
The value was “unable to compete for binding”.

For “DVEFR (peptide for use in antibody specificity evaluation)”, which “competition with biotinylated EVEFR” value (anti-EVEFR antibodies) is on record?
Its value is “somewhat higher level of interference”.

With “EVEFR (peptide simulating cleaved portion from carboxy side of novel sequence at known enzyme cleavage site) [penta-peptide at the amino-terminal end of CTFβ from NFEV or FFEV substrates]” as the substance, how does the “competition with biotinylated EVEFR” value (anti-EVEFR antibodies) read?
The value was “competed with biotinylated EVEFR”.

With “FFAV: APP695-derived polypeptide with FFAV at the β-secretase cleavage site” as the substance, how does the Aβ level (HEK293T cells) read?
Its Aβ level is “below the limit of detection”.

What about the sAPP level (HEK293T cells) of the same substance?
The sAPP level was “below the limit of detection”.

With “KFAA: APP695-derived polypeptide with KFAA at the β-secretase cleavage site” as the substance, how does the Aβ level (HEK293T cells) read?
Its Aβ level is “below the limit of detection”.

And the sAPP level (HEK293T cells)?
The sAPP level was “below the limit of detection”.

What does the source list for “KYAA: APP695-derived polypeptide with KYAA at the β-secretase cleavage site”?
Aβ level (HEK293T cells): below the limit of detection; sAPP level (HEK293T cells): below the limit of detection

Which results are given for “NFAV: APP695-derived polypeptide with NFAV at the β-secretase cleavage site”?
Aβ level (HEK293T cells): below the limit of detection; sAPP level (HEK293T cells): below the limit of detection

Which Aβ level (HEK293T cells) does the source give for “NFDV: APP695-derived polypeptide with NFDV at the β-secretase cleavage site” here?
The Aβ level was “below the limit of detection”.

What about the sAPP level (HEK293T cells) of the same substance?
The sAPP level was “below the limit of detection”.

For “NFEA: APP695-derived polypeptide with NFEA at the β-secretase cleavage site”, which “production of Aβ” value [1] is on record?
Its value is “no production of Aβ was observed”.

And the Aβ level (HEK293T cells)?
Its Aβ level is “below the limit of detection”.

What about the sAPP level (HEK293T cells) of the same substance?
The sAPP level was “below the limit of detection”.

For “NFEV: APP695-derived polypeptide with NFEV at the P2-P1-P1′-P2′ β-secretase cleavage site”, which “production of Aβ” value [1] is on record?
The value was “no production of Aβ was observed”.

And the “Aβ production compared with Swedish mutant and wild type APP695” value (HEK293T cells)?
The value was “high levels of Aβ, comparable to that generated by the APP Swedish mutant”.

And the “rate of cleavage relative to similar substrate with wild-type KMDA sequence” value (HEK293T cells; in an APP backbone, expressed in tissue culture cells)?
Its value is 15–20 times.

What does the source list for “NFTV: APP695-derived polypeptide with NFTV at the β-secretase cleavage site”?
Aβ level (HEK293T cells): below the limit of detection; sAPP level (HEK293T cells): below the limit of detection

For “NLDA (Swedish): APP Swedish mutant, NLDA at the β-secretase cleavage site”, which “Aβ produced relative to cells expressing wild-type APP” value (Cultured cells) is on record?
The value was 6–8 fold.

With “NLDV: APP695-derived polypeptide with NLDV at the β-secretase cleavage site” as the substance, how does the “production of Aβ” value [1] read?
Its value is “no production of Aβ was observed”.

And the “Aβ production compared with Swedish mutant and wild type APP695” value (HEK293T cells)?
The value was “over three times the level of wild type APP695”.

What about the “Aβ Level produced by APP β-site mutants in HEK293T cells” value (HEK293T cells; media 48 hrs post transfection, IP/Western with G2-10, densitometry, GFP control = 1X) of the same substance?
The value was 10–15X.

With “NYAA: APP695-derived polypeptide with NYAA at the β-secretase cleavage site” as the substance, how does the Aβ level (HEK293T cells) read?
Its Aβ level is “below the limit of detection”.

And the sAPP level (HEK293T cells)?
The sAPP level was “below the limit of detection”.

For “NYDV: APP695-derived polypeptide with NYDV at the β-secretase cleavage site”, which Aβ level (HEK293T cells) is on record?
Its Aβ level is “below the limit of detection”.

What about the sAPP level (HEK293T cells) of the same substance?
The sAPP level was “below the limit of detection”.

For “NYEA: APP695-derived polypeptide with NYEA at the β-secretase cleavage site”, which Aβ level (HEK293T cells) is on record?
Its Aβ level is “below the limit of detection”.

What about the sAPP level (HEK293T cells) of the same substance?
The sAPP level was “below the limit of detection”.

For SEVN, which “competition against biotinylated-SEVNF for binding of the 2081 antibody” value (shortened to “competition against biotinylated-SEVNF”) (2081 antibody) is on record?
Its value is “could not compete”.

With “SEVNF (SEVNF-OH) [five C-terminal amino acids of the modified sAPPβ fragment]” as the substance, how does the “competition against biotinylated-SEVNF” value (2081 antibody) read?
The value was “could compete”.

For SEVNFE, which “competition against biotinylated-SEVNF” value (2081 antibody) is on record?
The value was “could not compete”.

What does the source list for SEVNL?
competition against biotinylated-SEVNF for binding of the 2081 antibody (2081 antibody): limited amount of competition; effectiveness of competition relative to SEVNF (2081 antibody; less effective than SEVNF): 100 fold

Which “competition against biotinylated-SEVNF” value (2081 antibody) does the source give for SEVNLD here?
Its value is “could not compete”.

For “VEFR (peptide simulating cleaved portion from carboxy side of novel sequence at known enzyme cleavage site, lacking end amino acid)”, which “competition with biotinylated EVEFR” value (anti-EVEFR antibodies) is on record?
The value was “slight competitive interference”.

For acetylated-EVEFR (Ac-EVEFR), which “competition with biotinylated EVEFR” value (anti-EVEFR antibodies) is on record?
Its value is “does not bind well to the antibody”.

With coumarin-CO-REVNFEVEFR as the substance, how does the “substrate processed by BACE 1” value (BACE 1; 2 nM enzyme, 1.0 μM substrate, 30 min, pH 4.5, room temperature) read?
Its value is “less than 10%”.

What about the Km (BACE 1; cannot be determined due to limit of solubility of the substrate) of the same substance?
Its Km is greater than 100 µM.

For “coumarin-bound deca-peptide: coumarin-bound deca-peptide including the EVEFR sequence; possibly coumarin-CO-REVNFEVEFR (coumarin-REVNFEVEFR; not fully specified; printed as coumarin-CO-REVNFEVEFR; reading uncertain)”, which “competition with biotinylated EVEFR” value (anti-EVEFR antibodies) is on record?
The value was “did not compete well”.
